Calls of active or inactive are those of the source.
Molecular target: Cell division cycle 7-related protein kinase (Homo sapiens, UniProt O00311)
Also: in the data inactive means no Kd found up to 30 µM.

Cell division cycle 7-related protein kinase, sequence (O00311 whole entry): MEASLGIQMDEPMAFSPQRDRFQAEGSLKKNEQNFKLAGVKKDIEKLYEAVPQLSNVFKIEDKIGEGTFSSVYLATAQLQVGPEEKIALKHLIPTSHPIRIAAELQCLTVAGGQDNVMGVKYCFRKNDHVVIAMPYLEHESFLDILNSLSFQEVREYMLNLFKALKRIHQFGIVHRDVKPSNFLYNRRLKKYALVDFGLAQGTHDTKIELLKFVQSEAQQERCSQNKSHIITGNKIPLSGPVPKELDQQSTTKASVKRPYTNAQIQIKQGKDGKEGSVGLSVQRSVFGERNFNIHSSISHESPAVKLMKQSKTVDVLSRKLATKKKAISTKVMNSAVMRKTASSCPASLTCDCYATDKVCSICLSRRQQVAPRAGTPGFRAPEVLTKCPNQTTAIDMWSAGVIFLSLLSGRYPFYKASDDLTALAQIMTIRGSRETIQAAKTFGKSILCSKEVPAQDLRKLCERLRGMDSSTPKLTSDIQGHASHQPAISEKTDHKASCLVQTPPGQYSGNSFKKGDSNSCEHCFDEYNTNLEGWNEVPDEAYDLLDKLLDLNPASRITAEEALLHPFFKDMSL

SMILES | Kd
C[C@@H](Nc1cc(F)cc(F)c1)c1cc(C(=O)N(C)C)cc2c(=O)cc(N3CCOCC3)oc12 [AZD-8186] | > 30 µM (inactive)
Cc1cn(-c2cc(NC(=O)c3ccc(C)c(Nc4nccc(-c5cccnc5)n4)c3)cc(C(F)(F)F)c2)cn1 [NILOTINIB] | > 30 µM (inactive)
CN1CCC(CNc2ccc3ncc(-c4cccc(OC(F)(F)F)c4)n3n2)CC1 [SGI-1776] | > 30 µM (inactive)
CN1N=C(N)c2cn([C@@H]3O[C@H](COP(=O)(O)O)[C@@H](O)[C@H]3O)c3ncnc1c23 [TRICIRIBINE PHOSPHATE] | > 30 µM (inactive)
CC(C)Nc1cc(-c2c[nH]c(C(=O)N[C@H](CO)c3cccc(Cl)c3)c2)c(Cl)cn1 [ULIXERTINIB] | > 30 µM (inactive)
CCn1c(=O)c(-c2cc[nH]n2)cc2c(C)nc(N)nc21 [VOXTALISIB] | > 30 µM (inactive)

Molecular target: T1, UMP-CMP kinase (Homo sapiens, UniProt P30085)
T1 sequence (P30085 whole entry): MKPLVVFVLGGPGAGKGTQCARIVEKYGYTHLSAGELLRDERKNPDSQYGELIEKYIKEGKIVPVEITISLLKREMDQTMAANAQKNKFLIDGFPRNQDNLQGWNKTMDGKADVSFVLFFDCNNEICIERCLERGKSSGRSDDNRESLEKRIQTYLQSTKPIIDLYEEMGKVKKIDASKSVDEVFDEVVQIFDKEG

SMILES | Kd
N[C@@H]1CCCN(c2c(/C=C3\SC(=O)NC3=O)cccc2-c2ccccc2)C1 | > 30 µM (inactive)
Cc1cn(-c2cc(NC(=O)c3ccc(C)c(Nc4nccc(-c5cccnc5)n4)c3)cc(C(F)(F)F)c2)cn1 [NILOTINIB] | > 30 µM (inactive)
CN1CCC(CNc2ccc3ncc(-c4cccc(OC(F)(F)F)c4)n3n2)CC1 [SGI-1776] | > 30 µM (inactive)
CN1N=C(N)c2cn([C@@H]3O[C@H](COP(=O)(O)O)[C@@H](O)[C@H]3O)c3ncnc1c23 [TRICIRIBINE PHOSPHATE] | > 30 µM (inactive)
CC(C)Nc1cc(-c2c[nH]c(C(=O)N[C@H](CO)c3cccc(Cl)c3)c2)c(Cl)cn1 [ULIXERTINIB] | > 30 µM (inactive)
CCn1c(=O)c(-c2cc[nH]n2)cc2c(C)nc(N)nc21 [VOXTALISIB] | > 30 µM (inactive)

Molecular target: T2, Ephrin type-A receptor 1 (Homo sapiens, UniProt P21709)
T2 sequence (P21709 whole entry): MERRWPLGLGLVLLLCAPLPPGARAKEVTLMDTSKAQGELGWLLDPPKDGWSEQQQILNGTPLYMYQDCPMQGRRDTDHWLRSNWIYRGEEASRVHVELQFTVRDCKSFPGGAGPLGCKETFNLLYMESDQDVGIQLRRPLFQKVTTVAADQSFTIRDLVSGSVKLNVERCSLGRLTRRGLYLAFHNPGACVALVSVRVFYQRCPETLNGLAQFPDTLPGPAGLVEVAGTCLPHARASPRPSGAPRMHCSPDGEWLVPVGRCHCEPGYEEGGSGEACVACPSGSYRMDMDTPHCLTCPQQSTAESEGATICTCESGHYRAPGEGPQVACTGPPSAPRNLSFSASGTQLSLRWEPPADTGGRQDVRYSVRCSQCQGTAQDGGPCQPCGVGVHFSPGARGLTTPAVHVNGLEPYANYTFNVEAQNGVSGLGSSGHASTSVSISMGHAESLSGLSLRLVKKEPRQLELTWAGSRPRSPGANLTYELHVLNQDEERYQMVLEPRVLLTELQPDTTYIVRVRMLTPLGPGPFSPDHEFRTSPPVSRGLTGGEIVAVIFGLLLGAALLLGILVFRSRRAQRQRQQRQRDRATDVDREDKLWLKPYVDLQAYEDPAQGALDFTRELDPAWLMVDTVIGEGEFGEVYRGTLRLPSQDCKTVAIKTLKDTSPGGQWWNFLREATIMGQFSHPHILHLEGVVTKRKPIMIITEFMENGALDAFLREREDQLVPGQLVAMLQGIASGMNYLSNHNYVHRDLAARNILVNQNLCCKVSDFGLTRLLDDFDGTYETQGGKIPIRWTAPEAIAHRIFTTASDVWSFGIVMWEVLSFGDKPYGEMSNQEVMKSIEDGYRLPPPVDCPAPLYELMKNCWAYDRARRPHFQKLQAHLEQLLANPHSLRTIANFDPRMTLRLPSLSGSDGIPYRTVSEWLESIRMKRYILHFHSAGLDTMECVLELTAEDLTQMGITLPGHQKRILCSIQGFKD

SMILES | Kd
C[C@@H](Nc1cc(F)cc(F)c1)c1cc(C(=O)N(C)C)cc2c(=O)cc(N3CCOCC3)oc12 [AZD-8186] | > 30 µM (inactive)
CN1CCC(CNc2ccc3ncc(-c4cccc(OC(F)(F)F)c4)n3n2)CC1 [SGI-1776] | > 30 µM (inactive)
CN1N=C(N)c2cn([C@@H]3O[C@H](COP(=O)(O)O)[C@@H](O)[C@H]3O)c3ncnc1c23 [TRICIRIBINE PHOSPHATE] | > 30 µM (inactive)
CC(C)Nc1cc(-c2c[nH]c(C(=O)N[C@H](CO)c3cccc(Cl)c3)c2)c(Cl)cn1 [ULIXERTINIB] | > 30 µM (inactive)
CCn1c(=O)c(-c2cc[nH]n2)cc2c(C)nc(N)nc21 [VOXTALISIB] | > 30 µM (inactive)

Molecular target: Ephrin type-A receptor 7 (Homo sapiens, UniProt Q15375)

SMILES | Kd
N[C@@H]1CCCN(c2c(/C=C3\SC(=O)NC3=O)cccc2-c2ccccc2)C1 | > 30 µM (inactive)
C[C@@H](Nc1cc(F)cc(F)c1)c1cc(C(=O)N(C)C)cc2c(=O)cc(N3CCOCC3)oc12 [AZD-8186] | > 30 µM (inactive)
CN1CCC(CNc2ccc3ncc(-c4cccc(OC(F)(F)F)c4)n3n2)CC1 [SGI-1776] | > 30 µM (inactive)

Molecular target: T3, Inhibitor of nuclear factor kappa-B kinase subunit epsilon (Homo sapiens, UniProt Q14164)
T3 sequence (Q14164 whole entry): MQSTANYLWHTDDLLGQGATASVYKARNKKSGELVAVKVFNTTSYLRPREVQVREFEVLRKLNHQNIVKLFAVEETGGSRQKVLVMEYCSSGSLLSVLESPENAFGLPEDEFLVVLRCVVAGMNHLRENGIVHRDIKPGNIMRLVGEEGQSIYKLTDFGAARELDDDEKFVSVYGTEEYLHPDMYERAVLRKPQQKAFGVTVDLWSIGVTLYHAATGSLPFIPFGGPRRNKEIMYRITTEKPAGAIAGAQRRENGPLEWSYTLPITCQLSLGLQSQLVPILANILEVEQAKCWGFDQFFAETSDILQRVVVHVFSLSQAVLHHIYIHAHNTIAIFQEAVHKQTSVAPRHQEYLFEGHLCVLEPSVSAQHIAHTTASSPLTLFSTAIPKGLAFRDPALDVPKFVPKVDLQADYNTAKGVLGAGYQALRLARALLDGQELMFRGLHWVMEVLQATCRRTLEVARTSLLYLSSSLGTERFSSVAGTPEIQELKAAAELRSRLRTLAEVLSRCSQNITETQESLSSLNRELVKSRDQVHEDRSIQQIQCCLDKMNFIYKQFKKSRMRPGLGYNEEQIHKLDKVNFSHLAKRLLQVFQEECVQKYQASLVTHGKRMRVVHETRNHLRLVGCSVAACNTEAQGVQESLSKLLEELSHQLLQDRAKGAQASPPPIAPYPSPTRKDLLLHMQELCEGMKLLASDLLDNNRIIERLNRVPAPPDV

SMILES | Kd
N[C@@H]1CCCN(c2c(/C=C3\SC(=O)NC3=O)cccc2-c2ccccc2)C1 | > 30 µM (inactive)
C[C@@H](Nc1cc(F)cc(F)c1)c1cc(C(=O)N(C)C)cc2c(=O)cc(N3CCOCC3)oc12 [AZD-8186] | > 30 µM (inactive)
CN1CCC(CNc2ccc3ncc(-c4cccc(OC(F)(F)F)c4)n3n2)CC1 [SGI-1776] | > 30 µM (inactive)
CN1N=C(N)c2cn([C@@H]3O[C@H](COP(=O)(O)O)[C@@H](O)[C@H]3O)c3ncnc1c23 [TRICIRIBINE PHOSPHATE] | > 30 µM (inactive)
CC(C)Nc1cc(-c2c[nH]c(C(=O)N[C@H](CO)c3cccc(Cl)c3)c2)c(Cl)cn1 [ULIXERTINIB] | > 30 µM (inactive)

Molecular target: Hepatocyte growth factor receptor (Homo sapiens, UniProt P08581)
Sequence (P08581 whole entry): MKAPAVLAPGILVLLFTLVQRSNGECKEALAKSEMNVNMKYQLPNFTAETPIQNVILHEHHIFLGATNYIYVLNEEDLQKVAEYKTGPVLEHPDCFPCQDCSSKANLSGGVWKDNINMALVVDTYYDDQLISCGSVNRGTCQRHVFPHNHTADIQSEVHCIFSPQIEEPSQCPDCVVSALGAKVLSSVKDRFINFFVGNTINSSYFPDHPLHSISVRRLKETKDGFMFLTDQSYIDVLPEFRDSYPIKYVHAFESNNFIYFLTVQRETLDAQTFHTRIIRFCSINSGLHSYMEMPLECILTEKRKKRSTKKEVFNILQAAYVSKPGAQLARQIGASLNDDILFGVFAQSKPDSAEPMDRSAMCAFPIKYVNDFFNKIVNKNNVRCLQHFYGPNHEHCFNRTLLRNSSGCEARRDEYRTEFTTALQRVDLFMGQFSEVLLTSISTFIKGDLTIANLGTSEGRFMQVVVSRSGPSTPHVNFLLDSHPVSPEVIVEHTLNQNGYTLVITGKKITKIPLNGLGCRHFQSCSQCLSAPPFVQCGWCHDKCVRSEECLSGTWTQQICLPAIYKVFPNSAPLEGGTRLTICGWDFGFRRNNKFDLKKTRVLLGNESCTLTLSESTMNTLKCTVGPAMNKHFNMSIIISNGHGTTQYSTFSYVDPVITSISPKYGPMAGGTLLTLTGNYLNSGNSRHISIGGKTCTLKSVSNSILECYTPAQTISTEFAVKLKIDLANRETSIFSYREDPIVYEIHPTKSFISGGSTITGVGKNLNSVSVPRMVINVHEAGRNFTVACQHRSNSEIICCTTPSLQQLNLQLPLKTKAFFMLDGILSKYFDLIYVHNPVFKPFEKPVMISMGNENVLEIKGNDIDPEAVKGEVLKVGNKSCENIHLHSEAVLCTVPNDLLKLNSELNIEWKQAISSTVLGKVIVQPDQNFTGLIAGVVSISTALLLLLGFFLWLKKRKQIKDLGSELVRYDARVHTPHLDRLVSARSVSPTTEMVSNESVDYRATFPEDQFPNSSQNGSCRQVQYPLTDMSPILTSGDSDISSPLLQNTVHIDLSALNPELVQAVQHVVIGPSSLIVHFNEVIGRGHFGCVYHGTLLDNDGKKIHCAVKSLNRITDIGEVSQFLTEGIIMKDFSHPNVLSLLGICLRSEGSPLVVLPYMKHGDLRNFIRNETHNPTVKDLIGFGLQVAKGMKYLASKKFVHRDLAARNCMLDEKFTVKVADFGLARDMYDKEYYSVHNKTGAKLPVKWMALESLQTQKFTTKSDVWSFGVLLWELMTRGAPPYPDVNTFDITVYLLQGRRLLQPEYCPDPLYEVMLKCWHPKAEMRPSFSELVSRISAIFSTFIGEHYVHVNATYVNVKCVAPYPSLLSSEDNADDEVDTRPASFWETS

SMILES | Kd
N[C@@H]1CCCN(c2c(/C=C3\SC(=O)NC3=O)cccc2-c2ccccc2)C1 | > 30 µM (inactive)
C[C@@H](Nc1cc(F)cc(F)c1)c1cc(C(=O)N(C)C)cc2c(=O)cc(N3CCOCC3)oc12 [AZD-8186] | > 30 µM (inactive)
CN1CCC(CNc2ccc3ncc(-c4cccc(OC(F)(F)F)c4)n3n2)CC1 [SGI-1776] | > 30 µM (inactive)
CN1N=C(N)c2cn([C@@H]3O[C@H](COP(=O)(O)O)[C@@H](O)[C@H]3O)c3ncnc1c23 [TRICIRIBINE PHOSPHATE] | > 30 µM (inactive)
CC(C)Nc1cc(-c2c[nH]c(C(=O)N[C@H](CO)c3cccc(Cl)c3)c2)c(Cl)cn1 [ULIXERTINIB] | > 30 µM (inactive)

Molecular target: High affinity nerve growth factor receptor (Homo sapiens, UniProt P04629)
Sequence (P04629 whole entry): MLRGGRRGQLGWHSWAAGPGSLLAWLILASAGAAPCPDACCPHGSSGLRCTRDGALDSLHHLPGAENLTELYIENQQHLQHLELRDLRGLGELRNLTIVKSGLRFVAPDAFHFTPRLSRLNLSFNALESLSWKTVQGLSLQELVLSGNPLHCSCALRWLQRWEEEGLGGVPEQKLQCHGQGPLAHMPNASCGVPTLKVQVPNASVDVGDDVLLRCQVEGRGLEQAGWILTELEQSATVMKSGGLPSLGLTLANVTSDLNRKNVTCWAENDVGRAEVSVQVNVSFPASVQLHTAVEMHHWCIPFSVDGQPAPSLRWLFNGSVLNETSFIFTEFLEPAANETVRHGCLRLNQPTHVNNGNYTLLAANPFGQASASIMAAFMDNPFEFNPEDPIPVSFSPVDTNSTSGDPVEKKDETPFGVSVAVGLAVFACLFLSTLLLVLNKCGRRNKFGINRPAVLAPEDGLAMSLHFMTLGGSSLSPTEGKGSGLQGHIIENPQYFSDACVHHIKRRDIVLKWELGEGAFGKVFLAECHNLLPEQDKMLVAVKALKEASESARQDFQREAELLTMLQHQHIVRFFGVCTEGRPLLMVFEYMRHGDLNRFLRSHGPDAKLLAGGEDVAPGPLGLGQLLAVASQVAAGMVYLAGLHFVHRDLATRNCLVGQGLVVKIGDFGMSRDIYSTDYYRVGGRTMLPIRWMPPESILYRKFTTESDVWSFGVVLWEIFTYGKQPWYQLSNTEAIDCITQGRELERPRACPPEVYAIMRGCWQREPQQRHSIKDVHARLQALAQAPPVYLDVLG

SMILES | Kd
N[C@@H]1CCCN(c2c(/C=C3\SC(=O)NC3=O)cccc2-c2ccccc2)C1 | > 30 µM (inactive)
C[C@@H](Nc1cc(F)cc(F)c1)c1cc(C(=O)N(C)C)cc2c(=O)cc(N3CCOCC3)oc12 [AZD-8186] | > 30 µM (inactive)
CN1CCC(CNc2ccc3ncc(-c4cccc(OC(F)(F)F)c4)n3n2)CC1 [SGI-1776] | > 30 µM (inactive)
CN1N=C(N)c2cn([C@@H]3O[C@H](COP(=O)(O)O)[C@@H](O)[C@H]3O)c3ncnc1c23 [TRICIRIBINE PHOSPHATE] | > 30 µM (inactive)
CC(C)Nc1cc(-c2c[nH]c(C(=O)N[C@H](CO)c3cccc(Cl)c3)c2)c(Cl)cn1 [ULIXERTINIB] | > 30 µM (inactive)
CCn1c(=O)c(-c2cc[nH]n2)cc2c(C)nc(N)nc21 [VOXTALISIB] | > 30 µM (inactive)

Molecular target: Serine/threonine-protein kinase PAK 6 (Homo sapiens, UniProt Q9NQU5)
Sequence (Q9NQU5 whole entry): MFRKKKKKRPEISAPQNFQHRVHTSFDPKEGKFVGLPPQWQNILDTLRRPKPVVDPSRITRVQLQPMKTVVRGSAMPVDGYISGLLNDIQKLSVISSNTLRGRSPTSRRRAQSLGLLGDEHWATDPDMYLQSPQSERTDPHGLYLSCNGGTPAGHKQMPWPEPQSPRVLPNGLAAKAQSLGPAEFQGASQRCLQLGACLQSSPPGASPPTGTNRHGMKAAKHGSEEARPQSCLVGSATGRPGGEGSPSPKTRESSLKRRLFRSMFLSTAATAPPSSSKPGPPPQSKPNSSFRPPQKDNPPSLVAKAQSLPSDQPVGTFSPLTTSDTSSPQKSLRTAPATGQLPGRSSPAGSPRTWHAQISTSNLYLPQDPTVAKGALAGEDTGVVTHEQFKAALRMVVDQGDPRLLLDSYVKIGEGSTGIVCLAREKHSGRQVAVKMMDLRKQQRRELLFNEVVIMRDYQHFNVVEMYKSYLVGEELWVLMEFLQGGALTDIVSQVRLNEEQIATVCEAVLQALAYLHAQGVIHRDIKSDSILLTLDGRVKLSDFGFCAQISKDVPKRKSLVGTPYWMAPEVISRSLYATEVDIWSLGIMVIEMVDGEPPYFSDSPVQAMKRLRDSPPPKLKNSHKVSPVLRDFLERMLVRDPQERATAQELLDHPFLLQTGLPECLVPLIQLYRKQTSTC

SMILES | Kd
C[C@@H](Nc1cc(F)cc(F)c1)c1cc(C(=O)N(C)C)cc2c(=O)cc(N3CCOCC3)oc12 [AZD-8186] | > 30 µM (inactive)
CN1CCC(CNc2ccc3ncc(-c4cccc(OC(F)(F)F)c4)n3n2)CC1 [SGI-1776] | > 30 µM (inactive)
CC(C)Nc1cc(-c2c[nH]c(C(=O)N[C@H](CO)c3cccc(Cl)c3)c2)c(Cl)cn1 [ULIXERTINIB] | > 30 µM (inactive)

Molecular target: Membrane-associated progesterone receptor component 1 (Homo sapiens, UniProt O00264)
Sequence (O00264 whole entry): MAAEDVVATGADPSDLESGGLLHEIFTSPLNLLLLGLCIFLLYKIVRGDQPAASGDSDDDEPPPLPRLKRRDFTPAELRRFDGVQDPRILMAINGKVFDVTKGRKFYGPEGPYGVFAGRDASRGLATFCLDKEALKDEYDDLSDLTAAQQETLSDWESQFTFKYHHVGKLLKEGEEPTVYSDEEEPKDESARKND

SMILES | Kd
N[C@@H]1CCCN(c2c(/C=C3\SC(=O)NC3=O)cccc2-c2ccccc2)C1 | > 30 µM (inactive)
Cc1cn(-c2cc(NC(=O)c3ccc(C)c(Nc4nccc(-c5cccnc5)n4)c3)cc(C(F)(F)F)c2)cn1 [NILOTINIB] | > 30 µM (inactive)
CN1N=C(N)c2cn([C@@H]3O[C@H](COP(=O)(O)O)[C@@H](O)[C@H]3O)c3ncnc1c23 [TRICIRIBINE PHOSPHATE] | > 30 µM (inactive)
CC(C)Nc1cc(-c2c[nH]c(C(=O)N[C@H](CO)c3cccc(Cl)c3)c2)c(Cl)cn1 [ULIXERTINIB] | > 30 µM (inactive)
CCn1c(=O)c(-c2cc[nH]n2)cc2c(C)nc(N)nc21 [VOXTALISIB] | > 30 µM (inactive)

Molecular target: Dual specificity testis-specific protein kinase 1 (Homo sapiens, UniProt Q15569)
Sequence (Q15569 whole entry): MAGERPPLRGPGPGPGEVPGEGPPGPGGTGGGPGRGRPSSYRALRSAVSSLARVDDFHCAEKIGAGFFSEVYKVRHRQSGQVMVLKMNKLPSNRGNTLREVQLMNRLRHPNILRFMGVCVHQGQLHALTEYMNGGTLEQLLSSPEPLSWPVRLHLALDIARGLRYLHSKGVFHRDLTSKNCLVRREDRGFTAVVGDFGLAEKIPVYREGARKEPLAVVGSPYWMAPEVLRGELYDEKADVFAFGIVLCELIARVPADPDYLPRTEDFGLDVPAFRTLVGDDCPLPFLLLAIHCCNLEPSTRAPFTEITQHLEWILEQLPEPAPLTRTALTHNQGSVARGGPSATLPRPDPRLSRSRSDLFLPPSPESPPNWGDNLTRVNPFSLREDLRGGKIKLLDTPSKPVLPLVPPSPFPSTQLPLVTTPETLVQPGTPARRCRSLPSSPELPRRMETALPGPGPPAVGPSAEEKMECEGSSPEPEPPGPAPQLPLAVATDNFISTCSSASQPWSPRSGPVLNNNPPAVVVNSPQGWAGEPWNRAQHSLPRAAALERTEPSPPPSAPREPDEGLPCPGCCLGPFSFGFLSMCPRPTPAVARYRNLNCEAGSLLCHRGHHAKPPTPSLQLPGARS

SMILES | Kd
C[C@@H](Nc1cc(F)cc(F)c1)c1cc(C(=O)N(C)C)cc2c(=O)cc(N3CCOCC3)oc12 [AZD-8186] | > 30 µM (inactive)
CN1CCC(CNc2ccc3ncc(-c4cccc(OC(F)(F)F)c4)n3n2)CC1 [SGI-1776] | > 30 µM (inactive)
CC(C)Nc1cc(-c2c[nH]c(C(=O)N[C@H](CO)c3cccc(Cl)c3)c2)c(Cl)cn1 [ULIXERTINIB] | > 30 µM (inactive)
CCn1c(=O)c(-c2cc[nH]n2)cc2c(C)nc(N)nc21 [VOXTALISIB] | > 30 µM (inactive)

From ChEMBL document CHEMBL3991601, “The target landscape of clinical kinase drugs” (Science, 2017)
